Where two headings read alike, the source gives them in different places.
Molecular target: influenza PA endonuclease (Influenza A virus, UniProt C3W5S0)
Assay: biochemical
Design: species or system Pandemic H1N1 influenza A

Row | SMILES | IC50 [nM] | IC50 (IC50 value) [nM] | LE
1 | CS(=O)(=O)NCc1cc(=O)c(O)co1 [Compound 30] | 4800 ± 700 | – | –
2 | CN(Cc1cc(=O)c(O)co1)c1ccncc1 [Compound 41, 5-Hydroxy-2-((methyl(pyridin-4-yl)amino)methyl)-4H-pyran-4-one] | > 100000 | – | –
3 | CCOC(=O)c1c(C)n(-c2ccc(Oc3ccccc3)cc2)cc(O)c1=O [compound 68, Ethyl 5-hydroxy-2-methyl-4-oxo-1-(4-phenoxyphenyl)-, 4-dihydropyridine-3-carboxylate] | 5200 ± 800 | – | –
4 | O=C(O)c1[nH]c(-c2ccccc2)cc(=O)c1O [compound 142, 3-Hydroxy-4-oxo-6-phenyl-1,4-dihydropyridine-2-carboxylic acid] | 5.6 | – | –
5 | O=C(O)c1[nH]c(Br)cc(=O)c1O [compound 131, 6-Bromo-3-hydroxy-4-oxo-1,4-dihydropyridine-2-carboxylic acid] | – | 25 | –
6 | O=C(O)c1[nH]c(-c2ccc(Oc3ccccc3)cc2)cc(=O)c1O [compound 143, 3-Hydroxy-4-oxo-6-(4-phenoxyphenyl)-1,4-dihydropyridine-2-carboxylic acid] | 22 | – | –
7 | Cc1c(O)c(=O)ccn1-c1ccccc1 [Compound 45, 3-Hydroxy-2-methyl-1-phenylpyridin-4(1H)-one] | 18000 ± 2000 | – | –
8 | O=C(O)c1ccc(O)c(O)c1 [Compound 107] | 220 | – | 0.83
9 | CCOC(=O)c1c(C)n(-c2ccccc2)cc(O)c1=O [compound 67, Ethyl 5-hydroxy-2-methyl-4-oxo-1-phenyl-1,4-dihydropyridine-3-carboxylate] | 5300 ± 400 | – | –
10 | Cc1occ(O)c(=O)c1C(=O)NCCc1ccccc1 [Compound 13, 5-Hydroxy-2-methyl-4-oxo-N-phenethyl-4H-pyran-3-carboxamide] | 11300 ± 1200 | – | –
11 | O=C(O)c1cccc(-c2cc(=O)c(O)c(C(=O)O)[nH]2)c1 [compound 145, 6-(3-carboxyphenyl)-3-hydroxy-4-oxo-1,4-dihydropyridine-2-carboxylic acid] | 2 | – | –
12 | CNC(=O)c1[nH]ccc(=O)c1O [B4] | 13000 | – | –
13 | COc1cccc(CNC(=O)c2c(C)occ(O)c2=O)c1 [Compound 18, 5-Hydroxy-N-(3-methoxybenzyl)-2-methyl-4-oxo-4H-pyran-3-carboxamide] | 22100 ± 600 | – | –
14 | CN(Cc1cc(=O)c(O)co1)c1ccc(F)cc1 [Compound 39, 2-(((4-Fluorophenyl)(methyl)amino)methyl)-5-hydroxy-4H-pyran-4-one] | 1800 ± 200 | – | –
15 | CNC(=O)c1occc(=O)c1O [A11] | 4100 | – | –
16 | CN(Cc1cc(=O)c(O)co1)c1cccc(F)c1 [Compound 40, 2-(((3-Fluorophenyl)(methyl)amino)methyl)-5-hydroxy-4H-pyran-4-one] | 3200 ± 100 | – | –
17 | O=C(O)c1[nH]c(-c2ccc(-c3nnn[nH]3)cc2)cc(=O)c1O [compound 148, 6-(4-(1H-tetrazol-5-yl)phenyl)-3-hydroxy-4-oxo-1,4-dihydropyridine-2-carboxylic acid] | 1.9 | – | –
18 | Cc1cccc(-c2cc(=O)c(O)c(C(=O)O)[nH]2)c1 [compound 146, 3-hydroxy-4-oxo-6-(m-tolyl)-1,4-dihydropyridine-2-carboxylic acid] | 4.8 | – | –
19 | O=c1cc[nH]c(-c2ncco2)c1O [compound 151] | 71 | – | –
20 | Cc1c(O)c(=O)ccn1C1CCCCC1 [Compound 48, 1-Cyclohexyl-3-hydroxy-2-methylpyridin-4(1H)-one] | 14000 ± 3000 | – | –
21 | Cc1cc(O)c(=O)c(O)cc1-c1ccccc1 [compound 213, 2,7-Dihydroxy-4-methyl-5-phenylcyclohepta-2,4,6-trien-1-one] | 5 | – | –
22 | COc1cc(C)c(C(=O)O)cc(O)c1=O [Compound 105] | 180 | – | 0.66
23 | O=c1cc(Br)[nH]c(-c2nnn[nH]2)c1O [compound 133, 6-Bromo-3-hydroxy-2-(1H-tetrazol-5-yl)pyridin-4(1H)-one] | 63 | – | –
24 | CC(C)c1cccc(=O)c(O)c1 [E4] | 11000 | – | –
25 | O=c1cc(CNCc2ccccc2)occ1O [Compound 26, 2-((Benzylamino)methyl)-5-hydroxy-4H-pyran-4-one] | 2700 ± 400 | – | –
26 | O=C(O)c1ccc(-c2cc(=O)c(O)c(C(=O)O)[nH]2)cc1 [compound 144, 6-(4-carboxyphenyl)-3-hydroxy-4-oxo-1,4-dihydropyridine-2-carboxylic acid] | 1.6 | – | –
27 | Cc1cc(=O)c(O)cn1C1CCOCC1 [Compound 51] | 730 ± 70 | – | –
28 | O=c1cccccc1O [compound 201] | 8800 | – | –
